According to patent US20050043260A1, “Wnt as a factor for cardiac myogenesis” (BAYLOR COLLEGE OF MEDICINE, priority 2003, published 2005):

Key:
Type in all cases: cell-based
[1] = test system: P19CL6 cells; test: Cardiac-specific gene expression by QRT-PCR in differentiating P19CL6 cells; set-up: expression of Nkx2.5, GATA4, Tbx5, BMP2, BMP4: dose or concentration left out as unconfirmed
Description: (§1) Cells were grown on 10 cm dishes in α-minimal MEM; Invitrogen) supplemented with 10% fetal bovine serum (FBS) (Hyclone), streptomycin. To induce differentiation, cells were seeded at a 1:40 dilution with α-MEM, DMSO. For each experiment, cardiomyocyte differentiation was apparent in the control spontaneous beating, starting day 9 to 10. To obtain stable transformants incorporating GSK-vector control, cells were transfected using Lipofectamine2000 (Invitrogen) and medium containing 500 μg/ml Geniticin (Invitrogen). After 10-14 day, 60 colonies were picked and screened by RT-PCR. To detect exogenous GSK-3β selectively, the 5′ primer corresponded to the N terminus and the 3′ primer to the H. influenza hemagglutinin epitope tag.
RNA was isolated using TRIzol (Invitrogen). RNA (0.1 μg) was subjected to quantitative RT-PCR using the TaqMan One-step RT-PCR Master Mix Biosystems); the RT and PCR were run sequentially using a 7700 Sequence Detector (Applied Biosystems). Copy number for each transcript was expressed relative to that of glyceraldehyde-3-phosphate dehydrogenase (GAPDH), used as a constitutive control. RT-PCR for FGF8 and β-actin was done as described by Lee et al., 2000).

[2] = test system: P19CL6 cells; test: Sarcomeric MHC immunostaining (MF20-positive cells); set-up: dose or concentration left out as unconfirmed; settings: LiCl, day 12
Description: (§2) Cells were seeded on glass cover slips and cultured with or without DMSO for 3 days. Cells were fixed with 4% paraformaldehyde and penneablized with 0.2% Triton X-100 for 5 min. To detect phosphorylated β-catenin, cells were incubated overnight with rabbit antibody to phoshpo-β-catenin (Ser33/Ser37/Thr4l; Cell Signaling) in Tris-buffered saline, 3% bovine serum albumin, then for 1 hr with goat antibody to rabbit IgG conjugated with Alexa Fluor 488 (Molecular Probes). Immunostaining for sarcomeric myosin heavy chains (MHC) was performed using fluorescein isothiocyanate-conjugated MF20 antibody (Oh et al., 2001). Nuclei were counterstained with DAPI.

[3] = test system: P19CL6 cells; test: Spontaneous beating of differentiating cells
Description: as §1

[4] = test system: TCF-dependent transcription; test: TCF-dependent transcription, TOPFLASH luciferase assay in P19CL6 cells; settings: DMSO treatment for 4 days
Description: Cells were seeded and cultured as above and transfected 1 day after plating, using in serum-free αMEM for 6 hr. Transfections contained 0.5 μg TOPFLASH or 0.1 μg pRL-CMV as the co-transfected control. Medium containing 10% FBS with or without DMSO changed 6 and 48 hr after transfection. Cells were lysed 4 days after DMSO treatment and luciferase assayed using the Dual-Luciferase system (Promega). Firefly luciferase activity, indicating TCF-dependent transcription, was normalized to the Renilla luciferase activity of each extract. TOPFLASH activity induced by Wnt3A CM versus control CM was measured after 18 hr. Activity of the GSK-3βA9 expression vector was corroborated by transient transfection in 293T cells: cells were passaged at a 1:2.5 dilution into 24-well dishes, and TOPFLASH, pRL-CMV, and PGK-Wnt3A were co-transfected by calcium-phosphate precipitation along with pcDNA3-GSK-3βA9-HA versus the empty vector control (Jordan et al., 1996). Twenty-four hrs after transfection, the medium was changed to Dulbecco's modified Eagle's medium (DMEM) supplemented with 0.2% BSA. Forty-eight hrs after transfection, cells were lysed and luciferase activities were assayed.

[5] = test system: β-catenin; test: β-catenin and phospho-β-catenin Western blot / immunostaining in differentiating cells
Description: as §2
Cells were seeded on 6-well dishes (1.67×10^6 cells/well) and cultivated with or without 1% DMSO and 500 ng/ml Fx/FC chimeric protein. After 3 days, cells were harvested in phosphate-buffered saline in 4 C, centrifuged, and resuspended in 20 mM Tris-HCl, pH 7.5, 25 mM sodium fluoride, 1 mM EDTA, containing a protease inhibitor cocktail (Roche Molecular Biochemicals). Cells were incubated on ice for 20 min, followed by 30 strokes in a Dounce homogenizer, and centrifuged at 100,000×g for 30 min. The supernatant was collected as the soluble, cytoplasmic fraction and electrophoresised in 10% SDS-polyacrylamide gels. […]

In the case of `[Cl-].[Li+]` [LiCl], the “expression of Nkx2.5, GATA4, Tbx5, BMP2, BMP4” value ([1]; d 5, QRT-PCR) was “significantly increased”, the “effect on each of the early cardiac markers and on sarcomeric MHC” value ([1]; in the absence of DMSO) was “inductive effect” and the MF20-positive cells [2] was “significantly increased”. The spontaneous beating ([3]; treated alone, without DMSO) was “did not show spontaneous beating”.

In the case of `C[S+](C)[O-]` [DMSO], the “increase in luciferase activity (TCF-dependent transcriptional activity)” value [4] was 9 fold, the “phosphorylated β-catenin” value ([5]; DMSO treatment for 3 days, immunoblotting and immunocytochemistry) was “decreased” and the “soluble (cytosolic) β-catenin level” value ([5]; DMSO, day 3, Western blot) was “accumulation of soluble β-catenin”. The “time to expression of Nkx2.5, GATA4, MEF2C, and Tbx5 as early stage markers” value ([1]; 1% DMSO treatment, QRT-PCR) was 3 to 8 days, the “Wnt3A and Wnt8A induced as early as” value ([1]; after DMSO treatment, expression greatest on day 3) was 2 days and the spontaneous beating visible ([3]; 1% DMSO treatment) was 9 to 10 days.
